According to patent US6893829B2, “Human leukocyte 12-lipoxygenase and its role in the pathogenesis of disease states” (City of Hope, priority 1992, dated 2005):

How the values were obtained:
VEGF protein in AIHSMC = experiment: VEGF protein expression in immortalized human aortic smooth muscle cell line (AIHSMC); type: cell-based; conditions: five hours
Method: FIG. 10 illustrates the effect of a 12-lipoxygenase product 12-HPETE on VEGF protein (42 kD) expression in an immortalized human aortic smooth muscle cell line (AIHSMC). The cells were serum starved for 24 hours and then placed in fresh medium along with 12-HPETE. Cells were incubated for five hours and VEGF protein was then identified in cell lysed as described in the legend to FIG. 8.

RINm5F cells = experiment: DNA synthesis (3H-thymidine incorporation) in RINm5F cells; type: cell-based, rat; conditions: 24 hours, 12-HETE 10^−9M
Method: FIG. 11 illustrates the effects of 12-LO products on DNA synthesis in the insulin-producing rat beta cell line, RINm5F. DNA synthesis was studied using ^3H-thymidine incorporation (luCi/ml) added for the last six hours (18-24 hours of experiment). The LO products were added to the cells in complete growth media for 24 hours.
(§1) Applicants have discovered that direct addition of the 12-LO products 12-S-HETE or 12-HPETE directly decreases cellular growth as reflected by decreased ^3H thymidine incorporation or DNA synthesis in the rat pure beta cell line RIN-M5F.

leukocyte 12-LO = leukocyte 12-LO (Sus scrofa, UniProt P16469); conditions: reference 55; cited from earlier work
Chain of leukocyte 12-LO (P16469 whole entry): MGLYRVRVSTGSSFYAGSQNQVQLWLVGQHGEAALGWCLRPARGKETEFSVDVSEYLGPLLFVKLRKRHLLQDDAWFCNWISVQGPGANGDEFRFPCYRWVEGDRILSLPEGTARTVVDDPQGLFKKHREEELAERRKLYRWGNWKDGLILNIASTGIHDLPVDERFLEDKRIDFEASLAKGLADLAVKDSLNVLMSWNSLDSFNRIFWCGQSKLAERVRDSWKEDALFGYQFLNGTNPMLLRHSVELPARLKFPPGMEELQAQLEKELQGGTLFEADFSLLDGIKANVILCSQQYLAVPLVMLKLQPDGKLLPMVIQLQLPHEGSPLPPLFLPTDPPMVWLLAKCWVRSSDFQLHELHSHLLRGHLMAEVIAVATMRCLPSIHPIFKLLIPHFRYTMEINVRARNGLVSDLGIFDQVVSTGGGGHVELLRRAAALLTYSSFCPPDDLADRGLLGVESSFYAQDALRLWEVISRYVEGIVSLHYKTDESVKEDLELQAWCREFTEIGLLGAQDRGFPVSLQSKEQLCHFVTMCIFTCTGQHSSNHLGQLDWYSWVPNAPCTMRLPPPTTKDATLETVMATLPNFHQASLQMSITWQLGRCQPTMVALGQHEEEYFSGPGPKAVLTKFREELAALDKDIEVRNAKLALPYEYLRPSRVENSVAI

12-LO in RINm5F cells = experiment: 12-LO protein, mRNA and activity in RINm5F cells; type: cell-based, rat
Method: FIG. 12 illustrates a western immunoblot of proteins isolated from the insulin producing rat beta cell line, RINm5F showing the effect of interleukin-1β on 12-LO protein expression. In these studies, 25 μg of protein was isolated from the cells grown for 16 hours in reduced serum-containing medium 0.4% alone or along with IL-1β (0.1 ng/ml).
as §1
(§2) It has been discovered that IL-1β induces 12-LO protein and mRNA expression in RIN-M5F cells and 12-LO mRNA expression in rat islets.

[1] = tested on: 12-LO in rat pancreatic islets; experiment: 12-HETE production and 12-LO mRNA in rat pancreatic islets; type: cell-based
Excerpt: as §1, §2

[2] = tested on: leukocyte-type 12-LO in PVSMC; experiment: 12-LO activity, mRNA and protein in PVSMC; type: cell-based, porcine; conditions: 24 hours; for increase in 12-HETE HPLC peak (12-LO enzyme activity): 2.5 ng/ml; for 12-LO mRNA expression in PVSMC: FIG. 14
Method: FIG. 14A illustrates the dose-dependent effect of the cytokine interleukin-1β on 12-LO mRNA expression in porcine aortic smooth muscle cells (PVSMC). Confluent PVSMC growth in normal glucose medium was serum depleted for 24 hours by placing in medium+0.2% BSA+0.4% FCS. This medium was then freshly replaced along with IL-1β and the cells incubated for a further 24 hours. At the end of the incubation, total RNA was extracted from the cells using RNA-STAT. This RNA was the subjected to reverse-transcriptase polymerase chain reaction (RT-PCR) to detect and quantitate leukocyte-type 12-LO mRNA (333 bp PCR product, upper panel) using our well established techniques. The expression of GAPDH mRNA 284 bp, lower panel) was used as an internal control for PCR and for quantitation.
FIG. 14B illustrates the effect of the cytokine IL-4 on 12-LO mRNA expression in PVSMC. The ells were treated for 24 hours with IL-4 and 12-LO mRNA quantitated as described in the legend to FIG. 14A. It is clearly seen that IL-4 also increases 12-LO mRNA expression similar to IL-1β.
FIG. 14C illustrates the effect of the cytokine IL-8 on 12-LO mRNA expression in PVSMC. The cells were treated for 24 hours with IL-8 and 12-LO mRNA quantitated as described under legend 14A.
(§3) The cells were cultured in DME (normal glucose) and treated for 24 hours±cytokines in medium containing 0.2% BSA and 0.4% serum. Intracellular 12-LO enzyme activity was measured by HPLC, leukocyte-type 12-LO protein expression by immunoblotting and 12-LO mRNA by a specific reverse transcriptase polymerase chain reaction (RT-PCR). […] Treatment with these cytokines (0.5-5 ng/ml) also led to an increase (1.4-2.5-fold) in 12-LO protein expression 72 kD). In addition, all three cytokines (2.5 ng/ml) could induce a significant increase in PVSMC DNA synthesis (1.280.08, 1.67±0.11 and 1.3±0.07 fold increase in ^3H thymidine incorporation with IL-1, -4, and -8 respectively, p<0.01).

PVSMC = PVSMC DNA synthesis (3H thymidine incorporation); type: cell-based, porcine; conditions: 2.5 ng/ml
Method: as §3

[3] = tested on: 12-LO product formation in PVSMC; experiment: 12-HETE in PVSMC cultured in glucosamine (RIA); type: cell-based, porcine; conditions: glucosamine 7.5 mM
Method: Porcine vascular smooth muscles cells (PVSMC) were cultured in the presence of glucosamine (7.5 mM) for 24 hours. New media was then added with glucosamine (7.5 mM) for 25 minutes. The cells and media above the cells were collected and 12-HETE was measured using RIA. A very large increase in 12-HETE release into the media in cells cultured in glucosamine compared to those in normal glucose (6.48±1.2 pg/ml 12-HETE release in normal glucose vs. 20.6±3.6 pg/ml released in glucosamine n=4) was observed. Furthermore, cell associated 12-HETE was higher in glucosamine treated cells (735.9±67 pg/cell incubate normal glucose vs. 1225±112 pg in glucosamine).

CCCCC/C=C\CC(/C=C/C=C\C/C=C\CCCC(=O)O)OO (stereo not shown) [12-HPETE, 12-Hydroperoxyeicosatetraenoic Acid]
VEGF protein (42 kD) expression (VEGF protein in AIHSMC): causes an increase
3H-thymidine incorporation (DNA synthesis) (RINm5F cells): reduced

C=C[C@H](O)C#CC#CC/C=C\CCCCCCC [Panaxynol]
inhibition of leukocyte 12-LO (leukocyte 12-LO): relatively selective inhibitor

IL-1β: cytokine interleukin-1β
increase in 12-LO protein expression (12-LO in RINm5F cells; IL-1β 0.1 ng/ml, 16 hours): 2 fold
12-LO pathway activity (radioimmunoassay for 12-HETE) (12-LO in RINm5F cells; RIN-M5F): increased 12-LO pathway activity
12-LO mRNA expression (competitive PCR) (12-LO in RINm5F cells; RIN-M5F, 16 hours): concomitant increase
increase in leukocyte 12-LO protein expression (12-LO in RINm5F cells; human IL-1B at 0.2 ng): approximately two
12-LO mRNA and enzyme activity in purified Sprague-Dawley rat islets [1]: increased expression of 12-LO mRNA and enzyme activity
immunoreactive release of 12-S-HETE ([1]; IL-1B 2.5 ng/ml, basal 92): 250 pg/ml/40 islets
increase in 12-HETE HPLC peak (12-LO enzyme activity) [2]: 51%
12-LO mRNA expression in PVSMC [2]: dose-dependent increase

IL-8: cytokine IL-8
increase in 12-HETE HPLC peak (12-LO enzyme activity) [2]: 36%
12-LO mRNA expression in PVSMC [2]: dose-dependent increase
increase in 3H thymidine incorporation (PVSMC): 1.3±0.07 fold

N[C@H]1C(O)O[C@H](CO)[C@@H](O)[C@@H]1O (stereo partly shown) [glucosamine]
12-HETE release into the media ([3]; normal glucose 6.48±1.2): 20.6 ± 3.6 pg/mL
cell associated 12-HETE ([3]; normal glucose 735.9±67 pg/cell incubate): 1225 ± 112 pg

IL-4: cytokine IL-4
increase in 12-HETE HPLC peak (12-LO enzyme activity) [2]: 43%
12-LO mRNA expression in PVSMC [2]: increases
increase in 3H thymidine incorporation (PVSMC): 1.67±0.11 fold
